One series relates to A549 (lung cancer). Nature of the series: Binding of FITC-conjugated GIRLRG to cancer cells (fluorescent microscope). In kind it is cell-based, human. As to conditions: 10 μg/ml, 2 h, 37° C. The protocol:
(§1) Four cancer cell lines D54 (glioma), HT3 (cervical), OE33 (eosophageal) and A549 (lung cancer) were used to evaluate binding of GIRLRG (SEQ ID NO:1) peptide. Cancer cells were incubated with FITC-conjugated GIRLRG (SEQ ID NO:1) peptide and fluorescent images were acquired using a fluorescent microscope.
(§2) Cell Lines: Human lung adenocarcinoma A549 and Human glioblastoma D54 cells were cultured in DMEM/F12, human esophageal carcinoma OE33 cells in RPMI and HT3 cells in IMDM media supplemented with 10% fetal bovine serum, penicillin and streptomycin. They were maintained at 37° C. in a 5% CO2 incubator.
(§3) Immunofluorescence: Cancer cells (A549, HT3, D54 and OE33) were grown on chamber slides (Millipore, USA) and incubated with 10 μg/ml FITC-GIRLRG (SEQ ID NO:1) peptide for 2 h at 37° C. in a CO2 incubator. The cells were then washed with PBS to remove unbound peptide and fixed with 4% paraformaldehyde at room temperature. The nuclei were stained with DAPI and fluorescent images were captured using a Carl Zeiss microscope (Tokyo, Japan).

The subject of another series is D54 (glioma). The description is as above. Format: cell-based, human. As to conditions: 10 μg/ml, 2 h, 37° C. The protocol: as §1, §2, §3
For another series, the system named is OE33 (eosophageal). The series is described as above. In kind it is cell-based, human. As to conditions: 10 μg/ml, 2 h, 37° C. The protocol:
as §1, §2, §3

Another series deals with HT3 (cervical). Described as above. Format: cell-based. As to conditions: 10 μg/ml, 2 h, 37° C. The method, then: as §1, §2, §3
The subject of series [1] is cervical (HT3) heterotopic tumors. As to conditions: for effect of tumor irradiation on tumor binding: HT3, right hind limb 3 fractions of 3 Gy vs sham left.
Procedure: (§7) Nude mice bearing the HT3 and OE33 tumors in both the hind limbs were used (˜1 cm^3). Since radiotherapy is used in treating cervical and esophageal cancers, we also irradiated the tumors. The tumor on the right hind limb was irradiated with 3 fractions of 3 Gy over a course of 24 h, the tumor on the left hind limb was used as sham control. The mice were then injected with 500 μCi (10 μCi/μg) of radiolabeled peptide via tail vein. SPECT/CT imaging was performed at 48 and 72 h post injection.
(§8) Tumor models were established in 6 to 8-week-old female athymic nude mice obtained from Harlan laboratories (USA). Heterotopic tumors were induced by sub-cutaneously injecting tumor cells (1-3×10^6) into hind limbs of athymic nude mice. The tumors were grown until a size of 1 cm^3 before using the mice for SPECT imaging.
(§9) Whole body SPECT images were obtained at 48 and 72 h post injection (p.i.) using a NanoSPECT/CT imager (Bioscan Inc., Washington, D.C., USA) fitted with 2 mm pinhole collimators in helical scanning mode. Mice were placed in prone position and scanned under anesthesia (0.5 L/min 1.5% isoflurane in air). A 45-keV helical CT scan was performed first and then the SPECT acquisition was performed at 24 projections and 60 s per projection, for a total scan time of about 45 min. Tomographic data were reconstructed iteratively with the manufacturer-supplied InVivoScope and HiSPECT software for CT and SPECT, respectively.
(§10) After scanning, 96 h p.i., the bio-distribution of the labelled peptide in various organs was determined. The animals were sacrificed and organs of interest including blood were dissected/collected, weighed, and counted in a gamma counter along with a standard of the injected activity to allow calculation of the injected dose per organ (% ID/organ).
The test system of series [2] is esophageal (OE33) heterotopic tumors. Nature of the series: NanoSPECT/CT imaging and post-SPECT biodistribution in tumor bearing nude mice. As to conditions: for effect of tumor irradiation on tumor binding: OE33, right hind limb 3 fractions of 3 Gy vs sham left; for tumor uptake, post-SPECT biodistribution, compared to control peptide: OE33 tumor bearing mice, 96 h after injection; for tumor binding by SPECT imaging: OE33 tumors, 48 h and 72 h post injection, 500 μCi via tail vein.
Procedure: as §7, §8, §9, §10

The subject of series [3] is glioblastoma (D54) tumors. Nature of the series: SPECT/CT imaging of tumor models. Format: in vivo, mice. As to conditions: right hind limb 3 doses of 3 Gy. An excerpt:
(§4) In addition we also screened lung cancer (A549), pancreatic cancer (BxPC3) and glioblastoma (D54) tumor models for binding of radiolabeled GIRLRG (SEQ ID NO:1) peptide.

The test system of series [4] is lung cancer (A549) tumors. Nature of the series: SPECT/CT imaging of tumor models. Format: in vivo, mice. As to conditions: right hind limb 3 doses of 3 Gy.
From the text: as §4

For series [5], the system named is pancreatic cancer (BxPC3) tumors. Nature of the series: SPECT/CT imaging of tumor models. Format: in vivo, mice. As to conditions: right hind limb 3 doses of 3 Gy.
From the text: as §4

Another series relates to brain tumors. Nature of the series: SPECT imaging of 111In-labeled PEG-GIRLRG (Example 1). In kind it is in vivo, mouse. As to conditions: 72 hours following administration, 3 Gy vs 0Gy. The method, then:
(§5) The right hind limb tumor was treated with 3 Gy and left hind limb tumor is an untreated (0Gy) internal control in the same mouse.

Another series has as its system cervix tumors. Described as above. Format: in vivo, mouse. As to conditions: 72 hours following administration, 3 Gy vs 0Gy. The protocol:
as §5

The test system of another series is esophageal tumors. The series is described as above. In kind it is in vivo, mouse. As to conditions: 72 hours following administration, 3 Gy vs 0Gy. The protocol: as §5
The test system of another series is cancer. Nature of the series: Optimisation of the peptide construct: circulation and cancer binding. As to conditions: in vivo. An excerpt: The GIRLRG (SEQ ID NO:1) peptide conjugated to a poly-lysine linker for DOTA and DTPA conjugation was first studied. […] The duration of tumor binding was improved by PEGylation, with longer circulation times and prolonged imaging in cancer. […] Both PEG20 and PEG40 are effective at enhancing prolonged binding in cancer. […]

Another series deals with irradiated A549 tumors. Nature of the series: SPECT imaging and gamma emission of organs and tumors (Example 1). In kind it is in vivo, mice. As to conditions: mice with A549 tumors, 3 Gy. The protocol: (§6) SPECT images of the spatial and temporal pharmacokinetics of ^111In-labeled PEG-GIRLRG and ^111In-labeled control peptide within irradiated mouse A549 tumors is shown in FIG. 1. At 7 days after administration, gamma emission from each of the organs and tumors of mice injected with PEG-GIRLRG (SEQ ID NO:1) and PEG-control peptide was measured (FIG. 2).

The subject of series [6] is irradiated mouse A549 tumors. The series is described as above. Format: in vivo, mice. As to conditions: A549 tumors, 7 days after administration. The method, then:
as §6

Series [7] in a line: Size and aggregation of pegylated peptides (dynamic light scattering). In kind it is physicochemical.
For series [8], the target named is T1, recombinant eukaryotic GRP78 protein (Prospec, USA) (UniProt P11021 19-654, limits assumed).
T1 construct: Immobilised by amine coupling on a CM4 chip; also called Glucose-regulated protein 78 kDa; Glucose Regulatory Protein-78
T1 sequence (P11021 19-654 limits assumed): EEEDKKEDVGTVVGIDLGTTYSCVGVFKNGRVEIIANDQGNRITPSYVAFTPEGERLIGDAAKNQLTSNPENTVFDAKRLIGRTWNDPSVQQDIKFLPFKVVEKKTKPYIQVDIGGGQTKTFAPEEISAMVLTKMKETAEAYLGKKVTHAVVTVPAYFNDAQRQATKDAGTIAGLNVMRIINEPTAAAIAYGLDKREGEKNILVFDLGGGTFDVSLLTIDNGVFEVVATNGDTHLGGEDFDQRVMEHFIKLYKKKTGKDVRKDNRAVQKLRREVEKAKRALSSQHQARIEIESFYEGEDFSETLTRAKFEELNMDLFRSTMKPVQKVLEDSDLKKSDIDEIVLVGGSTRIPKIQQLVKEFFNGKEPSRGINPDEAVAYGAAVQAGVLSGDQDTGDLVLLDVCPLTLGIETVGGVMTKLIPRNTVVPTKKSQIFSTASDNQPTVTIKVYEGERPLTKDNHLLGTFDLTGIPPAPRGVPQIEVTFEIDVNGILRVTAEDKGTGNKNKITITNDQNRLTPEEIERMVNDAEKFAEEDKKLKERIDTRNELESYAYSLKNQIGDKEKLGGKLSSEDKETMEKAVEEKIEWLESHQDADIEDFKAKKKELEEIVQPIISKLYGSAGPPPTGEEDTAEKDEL
Nature of the series: SPR (BIAcore 2000), GRP78 amine-coupled on a CM4 chip, peptide as analyte at 0.313-10 mM, 25 C, HBS-EP. The protocol: To determine the binding affinity of GIRLRG (SEQ ID NO:1) peptide to GRP78 protein, we used surface plasmon resonance technology. GRP78 protein was immobilized on the surface of CM4 sensor chip and approximately 7000 resonance Units (RUs) of GRP78 protein were immobilized (FIG. 6A). The GIRLRG (SEQ ID NO:1) peptide was dissolved in HBS-EP buffer at various concentrations (10, 5, 2.5, 1.25 and 0.313 mM) and passed over the immobilized GRP78 for 2 min (FIG. 6B). The rate constant K_D was obtained by fitting the sensogram data after reference subtraction (data from blank channel) using the BIA evaluation 3.0 software.
Surface Plasmon Resonance (SPR): Affinity of GIRLRG (SEQ ID NO:1) to GRP78 protein was measured by the biosensor-based SPR technique using an automatic apparatus BIAcore 2000 (GE healthcare, Sweden) as described earlier. The recombinant eukaryotic GRP78 protein (Prospec, USA) as ligand that was immobilized by amine coupling on the CM4 sensor surface and GIRLRG (SEQ ID NO:1) peptide was used as the analyte. Experiments were performed at 25° C. in HBS-EP buffer (GE healthcare). GRP78 protein was immobolized using surface preparation wizard for amine coupling. […] The affinity of the interaction was determined from the level of binding at equilibrium as a function of the sample concentrations by BIA evaluation software 3.0.
Background: In SPR one partner is held on a chip, and binding of the other changes the refractive index at the surface.

Here are results for five molecules from patent US10449261B2, “Compositions targeting radiation-induced molecules and methods of use thereof” (Washington University, priority 2014, dated 2019).

Entries after “also recorded” stand apart in the source; their conditions may differ. Numbered stars: 1 amine (or outer) side, 2 acyl side, 3 side chain; on linkers, the order of the positions; unused ones are H or OH. Primed or numbered codes have the meaning given here. Ends that are not written are not given here. * marks the point of attachment. K(CHX-A″-DTPA) = O=C(O)CN(CC(=O)O)[C@H](Cc1ccc(NC(=S)NCCCC[C@H](N[*:1])C(=O)[*:2])cc1)CN(CC(=O)O)[C@H]1CCCC[C@@H]1N(CC(=O)O)CC(=O)O; FITC = O=C1OC2(c3ccc(O)cc3Oc3cc(O)ccc32)c2ccc(NC(=S)*)cc21; DTPA = O=C(O)CN(CCN(CC(=O)O)CC(=O)O)CCN(CC(=O)O)CC(=O)*; PEG = not defined here; AEEA = NCCOCCOCC(=O)O

As for “FITC-GIRLRG: FITC-conjugated GIRLRG peptide ({FITC}-GIRLRG)”, the “binding to cancer cells” value in the series with A549 (lung cancer) is listed as “specifically bound”; in the series on A549 (lung cancer) (listed as FITC labeled GIRLRG) it was “showed binding”; in the series on D54 (glioma) it was “specifically bound”; in the series on D54 (glioma) (listed as FITC labeled GIRLRG) it was “showed binding”; in the series on OE33 (eosophageal), “specifically bound”; in the series with OE33 (eosophageal) (listed as FITC labeled GIRLRG), “showed binding”. The results for the “binding to cancer cells” value in the series with HT3 (cervical) and in the series with HT3 (cervical) (listed as FITC labeled GIRLRG) were “specifically bound” and “showed binding”, respectively.
With GIRLRG [GIRLRG], the “effect of tumor irradiation on tumor binding” value in series [1] and in series [2] was “did not interfere with specific binding” each time.
Take “^111In-labeled PEG-DTPA-GIRLRG: PEG-GIRLRG radiolabeled with ^111Indium by use of DTPA as the chelator ({PEG-DTPA}-GIRLRG; reading uncertain; also: radiolabeled with 111In chelated by DTPA)”: the “tumor binding by SPECT/CT imaging” value in series [3], in [4] and in series [5] was “enhanced binding” throughout. The cancer selective binding result in the series with brain tumors, in the series with cervix tumors and in the series with esophageal tumors was “cancer selective binding” throughout. Besides, the cancer binding entry in the series with cancer is given as “binds within irradiated cancers”. Also, the “effect of tumor irradiation on tumor binding” value in [1] and in series [2] was “did not affect tumor binding” throughout. The “tumor binding by SPECT imaging” value in series [1] (HT3 tumors, 48 h and 72 h post injection, 500 μCi via tail vein) is “bound”; in series [2] it was “bound”. Also, the “tumor uptake, post-SPECT biodistribution, compared to control peptide” value in [2] is reported as “Significantly higher (p<0.001) uptake”.
“mPEG40K-carbonyl-Lys(CHX-A″-DTPA)-AEEAc-Lys(CHX-A″-DTPA)-AEEAc-Trp-Lys(CHX-A″-DTPA)-AEEAc-GIRLRG ({mPEG40K‑carbonyl-K(CHX-A″-DTPA)-AEEA-K(CHX-A″-DTPA)-AEEA-Trp-K(CHX-A″-DTPA)-AEEA}-GIRLRG) [PEG-GIRLRG]”: the “tumor binding by SPECT/CT imaging” value in series [3], in series [4] and in series [5] was “specific binding; also recorded: Enhanced tumor binding” each time. For the same molecule, the “binding to irradiated normal tissue” value in the series with irradiated A549 tumors is on record as “did not bind to irradiated normal tissue”. In addition, the “tumor binding (gamma emission from organs and tumors)” value in [6] was “selectively bound to tumors”. The same molecule showed a size in [7] of 8 nm. Further, in series [7] (after heating / radiolabeling conditions), the aggregation entry is “did not aggregate even after heating”. Besides, the “tumor uptake, post-SPECT biodistribution, compared to control peptide” value in series [2] is recorded as “Significantly higher uptake”. The “tumor binding by SPECT imaging” value in series [2] is “specifically bound; also recorded: Enhanced tumor binding”.

B1: GIRLRG (SEQ ID NO:1) peptide (peptide)
peptide: GIRLRG
notes: Unconjugated synthetic hexapeptide, used as the analyte in SPR and as the ligand in the molecular model; also called lead peptide
For the molecule B1, the Kd in [8] came out at 2160 µM.

As a reminder, the Kd is the constant that tells how readily two partners part at equilibrium.
